Experimental data taken from ChEMBL document CHEMBL5620400, “Design, synthesis, antiviral evaluation, and In silico studies of acrylamides targeting nsP2 from Chikungunya virus” (Eur J Med Chem, 2023).

Columns and labels:
Sindbis virus [1] = test: Antiviral activity against SINV infected african green monkey Vero cells assessed as reduction of plaque formation at 100 uM measured after 48 hrs relative to control; type: functional
Sindbis virus [2] = test: Antiviral activity against SINV infected african green monkey Vero cells assessed as reduction in viral titer measured after 24 hrs by plaque assay; type: functional, organism-based
Polyprotein P1234 [3] = target: T1, Polyprotein P1234 (Chikungunya virus (strain S27-African prototype) (CHIKV), UniProt Q8JUX6); test: Binding affinity to CHIKV nsP2 assessed as inhibition constant by measuring fluorescence by multimode microplate reader
T1 sequence (Q8JUX6 536-1333 limits assumed): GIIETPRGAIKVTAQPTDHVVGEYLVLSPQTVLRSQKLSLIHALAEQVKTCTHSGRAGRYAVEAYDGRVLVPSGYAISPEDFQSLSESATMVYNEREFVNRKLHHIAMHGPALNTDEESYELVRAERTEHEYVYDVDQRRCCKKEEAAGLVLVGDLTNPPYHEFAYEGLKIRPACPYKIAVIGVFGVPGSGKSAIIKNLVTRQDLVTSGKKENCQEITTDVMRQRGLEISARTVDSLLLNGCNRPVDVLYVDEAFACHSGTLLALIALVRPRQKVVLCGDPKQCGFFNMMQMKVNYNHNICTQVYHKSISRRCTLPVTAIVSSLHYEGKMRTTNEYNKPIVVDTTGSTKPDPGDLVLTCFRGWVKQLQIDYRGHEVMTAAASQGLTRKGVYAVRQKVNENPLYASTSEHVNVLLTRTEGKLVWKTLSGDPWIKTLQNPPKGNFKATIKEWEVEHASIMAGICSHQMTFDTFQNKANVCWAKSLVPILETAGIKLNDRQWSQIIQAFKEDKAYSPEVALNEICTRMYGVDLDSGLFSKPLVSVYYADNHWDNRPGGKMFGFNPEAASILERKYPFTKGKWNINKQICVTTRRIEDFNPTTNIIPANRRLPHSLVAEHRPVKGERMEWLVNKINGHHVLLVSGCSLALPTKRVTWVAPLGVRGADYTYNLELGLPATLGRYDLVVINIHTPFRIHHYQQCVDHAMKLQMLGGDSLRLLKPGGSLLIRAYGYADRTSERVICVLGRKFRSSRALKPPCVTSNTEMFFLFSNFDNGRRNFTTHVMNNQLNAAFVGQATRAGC

Polyprotein P1234 [4] = target: T1, Polyprotein P1234; test: Inhibition of CHIKV nsP2 protease activity assessed as decrease in the fluorescence signal using peptide substrate measured for 20 mins by FRET analysis
Polyprotein P1234 [5] = target: T1, Polyprotein P1234; test: Binding affinity to CHIKV nsP2 assessed as equilibrium dissociation constant by isothermal titration calorimetry
Chikungunya virus [6] = test: Antiviral activity against CHIKV infected african green monkey Vero cells assessed as inhibition of virus induced cytopathic effect measured after 48 hrs; type: functional, organism-based
[7] = Cytotoxicity against african green monkey Vero cells assessed as cell viability measured after 48 hrs by MTT assay; type: toxicity, cell-based; conditions: chlorocebus sabaeus
[8] = Selectivity index, ratio of CC50 for African green monkey Vero cells to EC50 for CHIKV; type: toxicity; conditions: read-out: Selectivity Index
Chikungunya virus [9] = test: Antiviral activity against CHIKV infected african green monkey Vero cells assessed as inhibition of virus induced cytopathic effect by measuring virus positive cells at 50 uM measured after 48 hrs by flow cytometry relative to control; type: functional; design: scale not given: the % may be the effect or the level left
[10] = Antiviral activity against […] infected african green monkey Vero cells assessed as reduction in viral RNA copies measured per uL at 50 uM measured after 24 hrs (reference value: 1.4 x […] vRNA copy numbers/uL); type: functional

Row | Compound | Imax (Sindbis virus [1]) [%] | EC50 (Sindbis virus [2]) [µM] | Ki (Polyprotein P1234 [3]) [µM] | IC50 (Polyprotein P1234 [4]) [µM] | Kd (Polyprotein P1234 [5]) [µM] | EC50 (Chikungunya virus [6]) [µM] | CC50 at 48 h [7] [µM] | selectivity ratio [8] | Activity (Chikungunya virus [9]) [%] | Activity [10]
1 | O=C(/C=C/c1ccc(Br)cc1)Nc1ccccc1 | >79.9 | 3.2 | 182 | 15.2 | 218 | – | – | – | – | –
2 | O=C(/C=C/c1ccc(Cl)cc1Cl)Nc1ccccc1 | 88.77 | < 3.12 | 92.3 | 20 | 159 | 47.9 | > 200 | > 4.17 | – | –
3 | O=C(/C=C/c1ccc(C(F)(F)F)cc1)Nc1ccccc1 | 95.76 | 0.95 | 48.6 | 12.5 | 127 | 5.2 | 165 | 31.8 | 35.8 | 720000
4 | COc1ccccc1/C=C/C(=O)Nc1ccccc1 | 58 | 73.1 | 2.3 | 0.95 | 198 | 25.9 | > 200 | > 7.72 | – | –
